Measurements reported in patent US20140011755A1, “Cardiac Glycosides for Treating Autoimmune Disease” (Department of Veterans Affairs, priority 2010, published 2014).

How the values were obtained:
[1] = test system: collagen-induced arthritis (CIA) joints; format: in vivo, DBA1/J mice; details: cross-sectioned ankle joints, CIA prevention groups
Method: FIG. 7. Cardiac glycosides reduce joint pathology in the CIA mouse model for rheumatoid arthritis. Blinded scoring was performed on histologic sections of joints harvested from mice at the end of a CIA prevention study (A-C). Joints derived from three representative mice belonging to each prevention group (A-C) were decalcified, fixed and stained with tolidine blue, followed by scoring by an examiner blinded to treatment status for the severity of synovitis (inflammation), pannus (growth of the synovial lining), and erosions of bone. (D-G) Joints derived from three representative mice belonging to each prevention group were decalcified, fixed, and stained with hematoxylin and eosin. Cross-sectioned ankle joints from vehicle (D), digitoxin (E), ouabain (F) and proscillaridin (G) treated mice are presented. Error bars represent SEM, and asterisks indicate P-values less than 0.05 by Mann-Whitney test.
In treatment studies, mice were randomly enrolled in treatment groups and treatment commenced when the average clinical score was at or above 2. […] Daily dosing commenced upon enrollment at the abovementioned concentrations. […] Double-blinded histopathology scoring was conducted of cross-sectioned joints taken from cardiac glycoside and vehicle recipients. […] The results obtained from these animal studies indicate that cardiac glycosides are effective at reducing the clinical manifestations of disease and reducing joint pathology in mice with collagen arthritis.
The effects of the different cardiac glycoside treatments on CIA pathology was analyzed by histological scoring. Inflammatory cell infiltrate, synovial hyperplasia, pannus formation and articular cartilage and bone deterioration were evaluated in sectioned paws of treated mice at specific time-points throughout the disease course. […] The ELISA was developed and read using BD ELISA development kit. […]

B cells from CIA mice = assay: RT-PCR cytokine gene expression in cells purified from CIA mice; format: cell-based; details: 33 nM and 100 nM, 45 minutes
Method: IL-10 (FIG. 20 A) and TGFβ1 (FIG. 20 B) levels were quantified. Samples were normalized against Ywhaz1 and Hprt1 housekeeping genes. […] Samples were examined in triplicates and the error bars represent the SEM. […] After 30 minutes, cells were washed, lysed and mRNA was isolated with Trizol (Invitrogen). RT-PCR was performed on mRNA and samples were normalized against housekeeping genes, Ywhaz1 and Hprt1. Data represent the average fold change in IL-10 gene expression compared to media alone. Error bars represent SEM of triplicates.
RT-PCR was performed and TGFβ1, IL-10 and IL-6 mRNA levels were quantified. Sample cDNA levels were normalized against housekeeping genes Ywhaz1 and Hprt1. Data represent the average fold change in IL-10 gene expression compared to media alone. Error bars represent SEM of triplicates.
RT-PCR was performed and TGFβ1 and IL-10 levels were quantified and samples were normalized against Ywhaz1 and Hprt1. Data represent the average fold gene induction of triplicates and error bars represent SEM.

CD40 = molecular target: T1, CD40 (Mus musculus, UniProt P27512); assay: CD40-mediated B cell proliferation (anti-CD40, CD40L); format: cell-based, mice; details: pre-treatment of B cells
T1 construct: Peritoneal and bone marrow-derived macrophages were isolated from CIA mice; endogenous in cells; host or cells: peritoneal and bone marrow-derived macrophages from CIA mice
T1 sequence (P27512 20-289): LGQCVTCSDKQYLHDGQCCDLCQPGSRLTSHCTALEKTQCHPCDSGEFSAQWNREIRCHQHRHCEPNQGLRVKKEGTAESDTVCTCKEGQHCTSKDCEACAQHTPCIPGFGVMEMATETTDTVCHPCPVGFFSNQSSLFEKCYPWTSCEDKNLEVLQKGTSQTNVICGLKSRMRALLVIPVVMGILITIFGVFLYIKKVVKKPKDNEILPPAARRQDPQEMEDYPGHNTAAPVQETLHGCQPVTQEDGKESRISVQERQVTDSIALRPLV
Method: (§1) Activity was monitored by ^3H-thymidine incorporation as a read-out for proliferation. […] Cell type(s) in the splenocyte population responsive to therapeutic concentrations of cardiac glycoside were determined by identifying the population of cells that responded to a dose-dependent decrease in activity in the presence of stimulant, defined as ligand(s) binding to cognate receptor(s). Activity was analyzed by: ^3H-thymidine or BrdU incorporation to monitor proliferation or by ELISA to monitor cytokine production. Splenic T lymphocytes were isolated by negative selection (MACS, Miltinyi Biotec) and are stimulated with PMA, ConA or through the TCR with anti-CD3/anti-CD28 Dynabeads (Invitrogen) and collagen II (all non-TNFR receptors/pathways). […] Peritoneal and bone marrow-derived macrophages were isolated from CIA mice in the presence of M-CSF growth factor and were stimulated with TNF and CD40 ligand (CD40L). […] Splenic B lymphocytes were isolated by negative selection (MACS, Miltinyi Biotec) and were stimulated with BAFF (BLyS), CD40L or through the BCR with anti-IgM u-chain specific antibodies.

[2] = test system: B cell receptor (membrane Ig); assay: B cell receptor mediated B cell proliferation; format: cell-based, mice; details: pre-treatment of B cells; anti-IgM stimulation
Method: as §1

BAFFR = assay: BAFF-mediated stimulation of B cells; format: cell-based, mice; details: 33 nM pre-treatment, BAFF 0.5 or 5 μg/ml
Method: as §1

regulatory T cells = assay: FACS of regulatory T cells in splenocytes of treated CIA mice; format: in vivo, DBA1/J mice; details: 0.3 mg/kg treated CIA mice, 4 mice per group
Method: FIG. 25. […] (A) Representative data from mixed lymphocyte studies. […] B cells were washed, replated in complete RPMI supplemented with BAFF (1 ng/mL), anti-CD3 antibody (4 μg/mL) and were added to 5×10^5 naïve CD4^+ T cells purified by MACS. Cells were incubated for 72 hr prior to harvest. IL-6, IL-10, TGFβ and IL-17 cytokine levels were measured by ELISA (R&D Systems, Peprotech, and eBiosciences). Data represent the average absorbance (A450) of triplicates and error bars represent the SEM. […] Cells were fixed in 4% paraformaldehyde for 15 minutes, washed twice with PBS and blocked with FACS buffer. Cells were stained for regulatory T cells using anti-TCRβ, anti-CD4, anti-CD25 and anti-FoxP3 antibodies (Cell Signaling Technologies, R&D Systems, AbCam). FACS was performed on the FACS Aria (Becton-Dickenson). Data represent the average population in 500,000 cells from 4 mice per treatment group. Error bars represent the SEM.
It is known that B cells can regulate T cell differentiation and in many states of autoimmune disease, an imbalance of Th1, Th2, and Th17 T cell populations exist. […] We performed studies to determine the regulatory effector function of B cells pre-treated with cardiac glycoside on T cell differentiation. […]

## C[C@H]1O[C@@H](O[C@H]2[C@@H](O)C[C@H](O[C@H]3[C@@H](O)C[C@H](O[C@H]4CC[C@@]5(C)[C@H](CC[C@@H]6[C@@H]5CC[C@]5(C)[C@@H](C7=CC(=O)OC7)CC[C@]65O)C4)O[C@@H]3C)O[C@@H]2C)C[C@H](O)[C@@H]1O [Digitoxin, digitoxin]
[1]
  immune cell infiltrate into the joints (hematoxylin and eosin): decreased amounts of immune cell infiltrate
B cells from CIA mice
  IL-6 mRNA expression in B cells: inhibit IL-6 expression
  IL-10 mRNA expression in B cells: induce
  TGFβ1 mRNA expression in B cells: induce
CD40
  CD40L-mediated B cell proliferation: inhibited CD40L-mediated proliferation
  anti-CD40 mediated B cell proliferation: prevented anti-CD40 mediated B cell proliferation
[2]
  B cell receptor mediated B cell proliferation: did not inhibit
BAFFR
  BAFF-mediated stimulation of B cells through BAFFR: inhibited BAFF-mediated stimulation
Regulatory T cells
  induction of regulatory T cells in vivo: induce regulatory T cells
